Results published in patent publication US20170354148A1, “SAFENED HERBICIDAL COMPOSITIONS CONTAINING HALAUXIFEN AND METHODS OF USE THEREOF IN BRASSICA SPECIES” (Dow AgroSciences LLC, priority 2016, published 2017).

Experiments:
[1] = tested on: Spring Argentine canola (Brassica napus, BRSNS); test: Example 3 field trials (Canada), postemergence crop safety, visual phytotoxicity; settings: alone or mixed; for Mean % Visual Injury: Table 28, halauxifen-methyl 5, clopyralid-olamine 150, quinclorac 101 g ae/ha
[2] = tested on: winter oilseed rape (Brassica napus, BRSNW); test: Example 5 greenhouse trials, postemergence visual injury; settings: BRSNW, 20-22 d
[3] = tested on: spring oilseed rape (Brassica napus, BRSNS); test: Example 4 field trials (Europe), postemergence crop safety, visual phytotoxicity
[4] = tested on: Roundup Ready® canola (Brassica napus, RR-BRSNN); test: Example 5 greenhouse trials, postemergence visual injury; settings: RR-BRSNN, 20-22 d

O=C(O)c1nc(Cl)ccc1Cl [Clopyralid-olamine, 2-hydroxyethanaminium 3,6-dichloro-2-pyridinecarboxylate] was tested, and the “Mean % Visual Injury” value ([1]; 7DAAA) was 2.0%, the “Mean % Visual Injury” value ([1]; 17DAAA) was 1.0% and the “Mean % Visual Injury” value ([1]; 32DAAA) was 2.0%. For the same molecule, the “Mean % Visual Injury” value ([1]; 49DAAA) was 0.8%, the “Mean % Visual Growth Inhibition” value ([1]; Trial 1, 16DAA1, halauxifen-methyl 2.5, clopyralid-olamine 150 g ae/ha) was 5.5% and the “Mean % Visual Growth Inhibition” value ([1]; Trial 1, 30DAA1, halauxifen-methyl 2.5, clopyralid-olamine 150 g ae/ha) was 6.3%. For the same molecule, the “Mean % Visual Growth Inhibition” value ([1]; Trial 1, 58DAA1, halauxifen-methyl 2.5, clopyralid-olamine 150 g ae/ha) was 2.8%, the “Mean % Visual Growth Inhibition” value ([1]; Trial 2, 32DAA1, halauxifen-methyl 0.62, clopyralid-olamine 150 g ae/ha) was 2.8% and the “Mean % Visual Growth Inhibition” value ([1]; Trial 2, 32DAA1, halauxifen-methyl 1.25, clopyralid-olamine 150 g ae/ha) was 2.8%. For the same molecule, the “Mean % Visual Growth Inhibition” value ([1]; Trial 2, 32DAA1, halauxifen-methyl 2.5, clopyralid-olamine 150 g ae/ha) was 2.8%, the “Mean % Visual Growth Inhibition” value ([1]; Trial 2, 49DAA1, halauxifen-methyl 0.62, clopyralid-olamine 150 g ae/ha) was 2.8% and the “Mean % Visual Growth Inhibition” value ([1]; Trial 2, 49DAA1, halauxifen-methyl 1.25, clopyralid-olamine 150 g ae/ha) was 2.8%. The “Mean % Visual Growth Inhibition” value ([1]; Trial 2, 49DAA1, halauxifen-methyl 2.5, clopyralid-olamine 150 g ae/ha) was 2.8%, the “Mean % Visual Growth Inhibition” value ([1]; Trial 3, 8DAA1, halauxifen-methyl 5, clopyralid-olamine 150 g ae/ha, line r23) was 0.8% and the “Mean % Visual Growth Inhibition” value ([1]; Trial 3, 8DAA1, halauxifen-methyl 5, clopyralid-olamine 150 g ae/ha, line r25) was 0.3%. The “Mean % Visual Growth Inhibition” value ([1]; Trial 3, 8DAA1, halauxifen-methyl 10, clopyralid-olamine 150 g ae/ha, line r22) was 0.8%, the “Mean % Visual Growth Inhibition” value ([1]; Trial 3, 8DAA1, halauxifen-methyl 10, clopyralid-olamine 150 g ae/ha, line r24) was 0.3% and the “Mean % Visual Growth Inhibition” value ([1]; Trial 3, 17DAA1, halauxifen-methyl 5, clopyralid-olamine 150 g ae/ha, line r27) was 1.0%. The “Mean % Visual Growth Inhibition” value ([1]; Trial 3, 17DAA1, halauxifen-methyl 5, clopyralid-olamine 150 g ae/ha, line r29) was 1.3%, the “Mean % Visual Growth Inhibition” value ([1]; Trial 3, 17DAA1, halauxifen-methyl 10, clopyralid-olamine 150 g ae/ha, line r26) was 1.0% and the “Mean % Visual Growth Inhibition” value ([1]; Trial 3, 17DAA1, halauxifen-methyl 10, clopyralid-olamine 150 g ae/ha, line r28) was 1.3%. The “Mean % Visual Growth Inhibition” value ([1]; Trial 3, 35DAA1, halauxifen-methyl 10, clopyralid-olamine 150 g ae/ha) was 0.8%, the “Mean % Visual Growth Inhibition” value ([1]; Trial 3, 48DAA1, halauxifen-methyl 5, clopyralid-olamine 150 g ae/ha, line r31) was 2.0% and the “Mean % Visual Growth Inhibition” value ([1]; Trial 3, 48DAA1, halauxifen-methyl 5, clopyralid-olamine 150 g ae/ha, line r32) was 0.8%. The “Mean % Visual Growth Inhibition” value ([1]; Trial 4, 13DAA1, halauxifen-methyl 10, clopyralid-olamine 150 g ae/ha, line r33) was 0.0%, the “Mean % Visual Growth Inhibition” value ([1]; Trial 4, 13DAA1, halauxifen-methyl 10, clopyralid-olamine 150 g ae/ha, line r34) was 0.0% and the “Mean % Visual Growth Inhibition” value ([1]; Trial 5, 7DAA1, halauxifen-methyl 0.62, clopyralid-olamine 150 g ae/ha) was 1.3%. The “Mean % Visual Growth Inhibition” value ([1]; Trial 5, 7DAA1, halauxifen-methyl 1.25, clopyralid-olamine 150 g ae/ha) was 1.3%, the “Mean % Visual Growth Inhibition” value ([1]; Trial 5, 7DAA1, halauxifen-methyl 2.5, clopyralid-olamine 150 g ae/ha) was 1.3% and the “Mean % Visual Growth Inhibition” value ([1]; Trial 5, 7DAA1, halauxifen-methyl 5, clopyralid-olamine 150 g ae/ha) was 1.3%. The “Mean % Visual Growth Inhibition” value ([1]; Trial 6, 33DAA1, halauxifen-methyl 5, clopyralid-olamine 150 g ae/ha) was 0.5%, the “Mean % Visual Growth Inhibition” value ([1]; Trial 7, 8DAA1, halauxifen-methyl 5, clopyralid-olamine 150 g ae/ha) was 1.5% and the “Mean % Visual Growth Inhibition” value ([1]; Trial 7, 15DAA1, halauxifen-methyl 0.62, clopyralid-olamine 150 g ae/ha) was 1.0%. The “Mean % Visual Growth Inhibition” value ([1]; Trial 7, 15DAA1, halauxifen-methyl 5, clopyralid-olamine 150 g ae/ha) was 1.0%, the “Mean % Visual Growth Inhibition” value ([1]; Trial 8, 7DAA1, halauxifen-methyl 5, clopyralid-olamine 150 g ae/ha) was 0.5% and the “Mean % Visual Growth Inhibition” value ([1]; Trial 8, 7DAA1, halauxifen-methyl 10, clopyralid-olamine 150 g ae/ha, line r44) was 0.0%. The “Mean % Visual Growth Inhibition” value ([1]; Trial 8, 7DAA1, halauxifen-methyl 10, clopyralid-olamine 150 g ae/ha, line r45) was 0.0%, the “Mean % Visual Growth Inhibition” value ([1]; Trial 8, 7DAA1, halauxifen-methyl 10, clopyralid-olamine 150 g ae/ha, line r46) was 1.3% and the “Mean % Visual Growth Inhibition” value ([1]; Trial 8, 7DAA1, halauxifen-methyl 10, clopyralid-olamine 150 g ae/ha, line r47) was 1.5%. The “Mean % Visual Growth Inhibition” value ([1]; Trial 8, 15DAA1, halauxifen-methyl 5, clopyralid-olamine 150 g ae/ha) was 0.0%, the “Mean % Visual Growth Inhibition” value ([1]; Trial 8, 15DAA1, halauxifen-methyl 10, clopyralid-olamine 150 g ae/ha, line r49) was 0.0% and the “Mean % Visual Growth Inhibition” value ([1]; Trial 8, 15DAA1, halauxifen-methyl 10, clopyralid-olamine 150 g ae/ha, line r50) was 0.5%. The “Mean % Visual Growth Inhibition” value ([1]; Trial 9, 6DAA1, halauxifen-methyl 5, clopyralid-olamine 150 g ae/ha) was 0.0%, the “Mean % Visual Growth Inhibition” value ([1]; Trial 9, 23DAA1, halauxifen-methyl 2.5, clopyralid-olamine 150 g ae/ha) was 0.0% and the “Mean % Visual Growth Inhibition” value ([1]; Trial 9, 23DAA1, halauxifen-methyl 5, clopyralid-olamine 150 g ae/ha) was 0.0%. For the same molecule, the “Mean % Visual Growth Inhibition” value ([1]; Trial 9, 33DAA1, halauxifen-methyl 5, clopyralid-olamine 150 g ae/ha) was 0.0%, the “Mean % Visual Growth Inhibition” value ([1]; Trial 9, 59DAA1, halauxifen-methyl 5, clopyralid-olamine 150 g ae/ha) was 0.0% and the “Mean % Visual Growth Inhibition” value ([1]; Trial 10, 17DAA1, halauxifen-methyl 5, clopyralid-olamine 100 g ae/ha) was 0.0%. The “Mean % Visual Growth Inhibition” value ([1]; Trial 10, 17DAA1, halauxifen-methyl 5, clopyralid-olamine 150 g ae/ha) was 0.0%, the “Mean % Visual Growth Inhibition” value ([1]; Trial 10, 17DAA1, halauxifen-methyl 5, clopyralid-olamine 200 g ae/ha) was 0.0% and the “Mean % Visual Growth Inhibition” value ([1]; Trial 10, 27DAA1, halauxifen-methyl 5, clopyralid-olamine 150 g ae/ha) was 0.0%. For the same molecule, the “Mean % Visual Growth Inhibition” value ([1]; Trial 10, 27DAA1, halauxifen-methyl 5, clopyralid-olamine 200 g ae/ha) was 1.7%, the “Mean % Visual Growth Inhibition” value ([1]; Trial 11, 7DAA1, halauxifen-methyl 5, clopyralid-olamine 150 g ae/ha) was 2.5% and the “Mean % Visual Growth Inhibition” value ([1]; Trial 11, 15DAA1, halauxifen-methyl 0.62, clopyralid-olamine 150 g ae/ha) was 3.0%. For the same molecule, the “Mean % Visual Growth Inhibition” value ([1]; Trial 11, 15DAA1, halauxifen-methyl 1.25, clopyralid-olamine 150 g ae/ha) was 3.0%, the “Mean % Visual Growth Inhibition” value ([1]; Trial 12, 15DAA1, halauxifen-methyl 10, clopyralid-olamine 150 g ae/ha) was 0.0% and the “Mean % Visual Growth Inhibition” value ([1]; Trial 12, 27DAA1, halauxifen-methyl 5, clopyralid-olamine 150 g ae/ha) was 1.0%. For the same molecule, the “% Visual Injury Obs” value ([2]; 50 g ai/ha alone) was 0%, the “% Visual Injury Obs” value ([2]; 100 g ai/ha alone) was 0% and the “% Visual Injury Obs” value ([2]; 200 g ai/ha alone) was 0%. For the same molecule, the “Mean % Visual Growth Inhibition” value ([3]; Trial 1, 14DAA1, 125 g ae/ha alone) was 3.0%, the “Mean % Visual Growth Inhibition” value ([3]; Trial 1, 14DAA1, 250 g ae/ha alone) was 3.0% and the “Mean % Visual Growth Inhibition” value ([3]; Trial 2, 17DAA1, 100 g ae/ha alone) was 0.0%. The “Mean % Visual Growth Inhibition” value ([3]; Trial 2, 17DAA1, 120 g ae/ha alone) was 2.3%, the “Mean % Visual Growth Inhibition” value ([3]; Trial 2, 24DAA1, 100 g ae/ha alone) was 0.0% and the “Mean % Visual Growth Inhibition” value ([3]; Trial 2, 24DAA1, 120 g ae/ha alone) was 2.0%. The “% Visual Injury Obs” value ([4]; 50 g ai/ha alone) was 0%, the “% Visual Injury Obs” value ([4]; 100 g ai/ha alone) was 0% and the “% Visual Injury Obs” value ([4]; 200 g ai/ha alone) was 0%.
